Results from PubChem BioAssay (NCI).
Where “and” joins values, the source holds several entries; their conditions need not be identical. Equal entries are not always repeated.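 Cultured in 96-well plates, cells were exposed to test compound for 48 hours across five concentrations. GI50 = concentration required for 50% inhibition of growth. The concentration for full growth arrest is given as TGI.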

Legend:
Assay in all cases: NCI anticancer screen, dose series, 48 h
ACHN renal = system: ACHN renal
EKVX NSCLC = system: EKVX NSCLC
HS 578T breast = system: HS 578T breast
M14 melanoma = system: M14 melanoma
SF-268 CNS = system: SF-268 CNS
SF-295 CNS = system: SF-295 CNS
SK-MEL-28 melanoma = system: SK-MEL-28 melanoma
TK-10 renal = system: TK-10 renal
U251 CNS = system: U251 CNS
UO-31 renal = system: UO-31 renal

Row | Structure (SMILES) | GI50 (ACHN renal) | TGI (ACHN renal) | GI50 (EKVX NSCLC) | TGI (EKVX NSCLC) | GI50 (HS 578T breast) | TGI (HS 578T breast) | GI50 (M14 melanoma) | TGI (M14 melanoma) | GI50 (SF-268 CNS) | TGI (SF-268 CNS) | GI50 (SF-295 CNS) | TGI (SF-295 CNS) | GI50 (SK-MEL-28 melanoma) | TGI (SK-MEL-28 melanoma) | GI50 (TK-10 renal) | TGI (TK-10 renal) | GI50 (U251 CNS) | TGI (U251 CNS) | GI50 (UO-31 renal) | TGI (UO-31 renal)
1 | Cc1cc(Cl)ccc1OCC(=O)Nc1nc2c(Cl)cccc2s1 | 43.3 µM | > 100 µM | > 100 µM | > 100 µM | > 100 µM | > 100 µM | > 100 µM | > 100 µM | 28.8 µM | > 100 µM | 20.8 µM | > 100 µM | > 100 µM | > 100 µM | 61.3 µM | > 100 µM | 8.32 µM | 25.2 µM | > 100 µM | > 100 µM
2 | CN(c1ccc(NC(=O)Nc2c(Cl)cccc2Cl)cc1)c1ccnc(Nc2cccc(CS(C)(=O)=O)c2)n1 | 3.48 µM | 8.79 µM | 6.31 µM | > 25 µM | 4.35 µM | > 17.6 µM | 2.64 µM | 11.6 µM | 2.19 µM | 10.7 µM | 1.54 µM | 12.6 µM | 3.56 µM | 9.47 µM | 3.98 µM | 9.02 µM | 2.62 µM | 9.61 µM | 4.28 µM | 13.3 µM
3 | CCN1C(=O)/C(=C/c2c(Cl)[nH]c3cc(C)c(OC)cc23)c2ccccc21 | 9.36 µM | > 100 µM | 7.58 µM | 80.4 µM | 2.86 µM | 7.23 µM | 4.42 µM | 53.9 µM | 6.18 µM | > 100 µM | 1.49 µM | 40.6 µM | 49.3 µM | > 100 µM | 16.5 µM | 75.6 µM | 4.53 µM | 20.2 µM | 2.87 µM | > 100 µM
4 | CCCCCCCCn1ccc2cc(NC(=O)Cn3cc(CN4CCCCCC4)nn3)ccc21 | 1.73 µM | 3.11 µM | 1.68 µM | 3.43 µM | 1.91 µM | 4.16 µM | 1.67 µM | 3.23 µM | 1.8 µM | 3.37 µM | 1.74 µM | 3.33 µM | 1.82 µM | 3.3 µM | 1.63 µM | 3.06 µM | 1.83 µM | 3.29 µM | 1.48 µM | 2.81 µM
5 | CN(C)CCC(=O)N1C/C(=C\c2ccc(Cl)c(Cl)c2)C(=O)/C(=C/c2ccc(Cl)c(Cl)c2)C1 |  | 1.05 µM |  | 1.53 µM |  | 1.73 µM |  | 0.979 µM |  | 0.653 µM |  | 0.824 µM |  | 1.82 µM |  | 1.58 µM |  | 0.437 µM |  | 0.862 µM
6 | CS(=O)(=O)CCNCc1coc(-c2ccc3ncnc(Nc4ccc(OCc5ccccc5)cc4)c3c2)c1 | 3.69 µM | 17.1 µM | 1.25 µM | > 25 µM | 2.45 µM | 7.66 µM | 4.44 µM | 9.11 µM | 3.35 µM | 7.5 µM | 4.39 µM | 9.19 µM | 3.83 µM | 7.49 µM | 1.95 µM | 12.2 µM | 4.72 µM | > 14.2 µM | 2.86 µM | 6.95 µM
7 | COc1cccc2c1C(=N)c1c(O)c3c(c(O)c1C2=O)C[C@@](O)(C(C)=O)C[C@@H]3O[C@H]1C[C@H](N)[C@H](O)[C@H](C)O1 | 0.419 µM | 3.1 µM | 2.53 µM | 12.6 µM | 1.66 µM | 8.31 µM | 0.496 µM | 4.78 µM | 0.339 µM | 3.62 µM | 0.219 µM | 1.27 µM | 2.58 µM | 13.9 µM |  | 3.19 µM | 0.144 µM | 2.14 µM | 2.24 µM | 19.9 µM
8 | O=C1C=CC(=O)C2C1C1(Cl)C(Cl)=C(Cl)C2(Cl)C1(Cl)Cl (configuration not stated) | 4.18 µM | 18.3 µM | 1.56 µM | 7.48 µM | 2.51 µM | 7.92 µM | 3.35 µM | 13.3 µM | 3.16 µM | 14.8 µM | 1.91 µM | 6.62 µM | 9.63 µM | 21.8 µM | 8.07 µM | 81 µM | 5.76 µM | 19.1 µM | 3.41 µM | 16.1 µM
9 | Cc1ccc(C)c(NC(=O)CC2Sc3ccccc3NC2=O)c1 (configuration not stated) | 38.3 µM | > 86.5 µM |  | > 100 µM |  | > 75.2 µM |  | > 100 µM |  | 26.1 µM and 74.2 µM |  | > 100 µM | 34.9 µM and > 100 µM | 54.7 µM and > 100 µM | 18.3 µM and 41.9 µM | 35.5 µM and > 87.3 µM |  | 25.4 µM and 52.2 µM | 14.5 µM and 30 µM | 23 µM and 55.7 µM
10 | Nc1n[nH]c2cccc(C#Cc3cccc(NC(=O)c4cccc(C(F)(F)F)c4)c3)c12 | 2.44 µM | 9.78 µM | 6.2 µM | 19.8 µM | 1.96 µM | 6.09 µM | 1.88 µM | 10 µM | 3.82 µM | 16.3 µM | 2.68 µM | 10.5 µM | 2.72 µM | 12.5 µM | 5.61 µM | 13.7 µM | 5.32 µM | 17.2 µM | 2.29 µM | 9.45 µM
11 | CCCCCCCCCCCCCCCCCCOC[C@H](COP(=O)(O)O[C@H]1[C@H](O)[C@@H](O)[C@H](O)C[C@H]1O)OC | > 100 µM and 16.3 µM | > 100 µM and 30 µM | 82.8 µM and 13.3 µM | > 100 µM and 26.8 µM | > 100 µM and 17.9 µM | > 100 µM and 34.8 µM | > 100 µM and 12 µM | > 100 µM and 24.7 µM | > 100 µM and 15 µM | > 100 µM and 29.7 µM | 98.4 µM and 15.3 µM | > 100 µM and 30.8 µM |  | > 100 µM and 33.8 µM | 41.8 µM and 7.74 µM | > 100 µM and 20.7 µM | 33 µM and 5.89 µM | > 100 µM and 19.2 µM | > 100 µM | > 100 µM and 22.1 µM
12 | Cc1cn(-c2cc(NC(=O)c3cccc(C#Cc4cccc5[nH]nc(N)c45)c3)cc(C(F)(F)F)c2)cn1 | 3.86 µM | 16 µM | 7.38 µM | > 100 µM | 2.86 µM | 42.2 µM | 2.48 µM | 17.4 µM | 4.81 µM | > 100 µM | 4.26 µM | 28.4 µM | 2.62 µM | 25.7 µM | 17.8 µM | 60.4 µM | 5.15 µM | 20.3 µM | 2.79 µM | 26.5 µM
